Reference: patent US20250388553A1 (Incyte Corporation, priority 2018, published 2025)
Where a name gives a salt, the structure may show the parent alone. Read-outs that look alike come from different tables or passages of the source. One block for each molecule: values may come before it.

Legend:
[1] = tested on: Phosphorylated Ribosomal Protein S6 (RPS6) in THP-1 cells; assay: THP-1 RPS6 ELISA assay; assay type: cell-based, Human; settings: THP-1 cells, 10 nM MCP-1, phospho-RPS6 ELISA, read-out: PI3Kγ_THP1_RPS6_ELISA IC50
Text: Example A. THP-1 RPS6 ELISA Assay
To measure the Phosphorylated Ribosomal Protein S6 (RPS6) in cell lysates, THP-1 cells (Human Acute Monocytic Leukemia) are purchased from ATCC (Manassas, VA) and maintained in RPMI with 10% FBS (Gibco/Life Technologies, Carlsbad, CA). For the assay, THP-1 cells are serum starved overnight in RPMI, then plated in RPMI (2×10^5 cells/well in […]) into 96-well flat-bottom tissue culture treated plates (Corning, Corning, NY), in the presence or absence of a concentration range of test compounds. Covered plates are incubated for 2 hours at 37° C., 5% CO2 then treated with or without 10 nM MCP-1(MYBioSource, San Diego, CA) for 15 minutes at 37° C., 5% CO2. Plates are centrifuged at 1600 RPM and supernatants are removed. Cells are lysed in Lysis Buffer (Cell Signaling, Danvers, MA) with Protease Inhibitor (Calbiochem/EMD, Germany), PMSF (Sigma, St Louis MO), HALTS (Thermo Fisher, Rockford, IL) for 30 min on wet ice. Cell lysates are frozen at −80° C. before testing. The lysates are tested in the Human/Mouse/Rat Phospho-RPS6 ELISA (R&D Systems, Inc. Minn, MN). The plate is measured using a microplate reader (SpectraMax M5—Molecular Devices, LLC Sunnyvale, CA) set to 450 nm with a wavelength correction of 540. IC50 determination is performed by fitting the curve of inhibitor percent inhibition versus the log of the inhibitor concentration using the GraphPad Prism 5.0 software.
The compounds of the Examples were tested in the assays described in Examples A, B and C and found to have the IC50s are shown in Tables A1, A2, A3 and A4.

[2] = biological target: PI3Kδ (p1106/p85a) Recombinant Human Protein (Homo sapiens (Human), UniProt O00329); assay: PI3Kδ scintillation proximity assay; assay type: biochemical; settings: scintillation proximity assay, recombinant human PI3Kδ
Chain of PI3Kδ (p1106/p85a) Recombinant Human Protein (O00329 whole entry): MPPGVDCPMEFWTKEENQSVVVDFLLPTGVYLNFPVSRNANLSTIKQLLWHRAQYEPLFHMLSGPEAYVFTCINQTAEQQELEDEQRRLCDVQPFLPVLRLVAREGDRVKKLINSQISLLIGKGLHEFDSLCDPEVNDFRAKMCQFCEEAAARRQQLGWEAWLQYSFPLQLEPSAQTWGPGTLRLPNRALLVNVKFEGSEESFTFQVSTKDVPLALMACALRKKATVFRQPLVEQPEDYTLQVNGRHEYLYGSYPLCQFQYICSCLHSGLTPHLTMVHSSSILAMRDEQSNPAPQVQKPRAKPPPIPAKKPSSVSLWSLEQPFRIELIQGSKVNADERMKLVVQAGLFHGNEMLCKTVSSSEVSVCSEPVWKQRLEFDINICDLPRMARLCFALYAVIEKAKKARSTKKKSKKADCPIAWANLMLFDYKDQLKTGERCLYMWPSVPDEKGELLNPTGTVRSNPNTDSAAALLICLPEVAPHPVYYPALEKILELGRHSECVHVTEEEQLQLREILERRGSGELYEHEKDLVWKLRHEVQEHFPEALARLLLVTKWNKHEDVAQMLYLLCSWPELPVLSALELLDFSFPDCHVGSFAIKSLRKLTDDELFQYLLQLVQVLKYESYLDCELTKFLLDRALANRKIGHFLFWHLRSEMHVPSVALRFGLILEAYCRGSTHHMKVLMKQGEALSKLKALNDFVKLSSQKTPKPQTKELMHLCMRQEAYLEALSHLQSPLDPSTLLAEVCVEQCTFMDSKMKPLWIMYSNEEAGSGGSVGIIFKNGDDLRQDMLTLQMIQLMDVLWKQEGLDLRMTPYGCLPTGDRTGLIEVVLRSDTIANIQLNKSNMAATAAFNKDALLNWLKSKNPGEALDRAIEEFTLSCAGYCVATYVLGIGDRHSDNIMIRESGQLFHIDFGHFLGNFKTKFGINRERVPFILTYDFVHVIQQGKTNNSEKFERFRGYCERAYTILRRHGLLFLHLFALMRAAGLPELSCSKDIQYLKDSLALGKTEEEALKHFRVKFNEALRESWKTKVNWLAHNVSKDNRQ
Chain of PI3Kδ (p1106/p85a) Recombinant Human Protein (P27986 whole entry partner): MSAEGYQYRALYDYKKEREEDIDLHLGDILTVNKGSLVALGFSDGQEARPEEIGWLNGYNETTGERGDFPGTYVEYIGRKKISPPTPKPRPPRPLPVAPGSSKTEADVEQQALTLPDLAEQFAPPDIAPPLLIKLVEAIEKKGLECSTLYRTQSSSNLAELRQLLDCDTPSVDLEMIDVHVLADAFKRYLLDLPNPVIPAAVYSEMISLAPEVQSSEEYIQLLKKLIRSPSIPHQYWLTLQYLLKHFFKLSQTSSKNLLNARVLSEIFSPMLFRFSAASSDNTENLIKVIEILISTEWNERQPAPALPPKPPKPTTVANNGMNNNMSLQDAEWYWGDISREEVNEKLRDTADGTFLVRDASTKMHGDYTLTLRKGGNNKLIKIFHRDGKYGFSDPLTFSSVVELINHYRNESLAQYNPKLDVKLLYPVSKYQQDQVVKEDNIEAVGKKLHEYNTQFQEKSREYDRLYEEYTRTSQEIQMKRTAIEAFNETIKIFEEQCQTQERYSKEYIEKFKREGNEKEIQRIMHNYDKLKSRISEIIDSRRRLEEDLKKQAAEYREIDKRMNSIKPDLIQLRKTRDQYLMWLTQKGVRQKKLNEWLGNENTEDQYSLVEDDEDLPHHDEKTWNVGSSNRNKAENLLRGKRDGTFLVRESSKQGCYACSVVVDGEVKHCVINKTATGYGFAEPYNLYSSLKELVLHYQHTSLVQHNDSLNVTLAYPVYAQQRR

[3] = biological target: PI3Kγ (p110γ) Recombinant Human Protein (Homo sapiens (Human), UniProt P48736); assay: PI3K-γ scintillation proximity assay; assay type: biochemical; settings: scintillation proximity assay, recombinant human p110γ
Chain of PI3Kγ (p110γ) Recombinant Human Protein (P48736 whole entry): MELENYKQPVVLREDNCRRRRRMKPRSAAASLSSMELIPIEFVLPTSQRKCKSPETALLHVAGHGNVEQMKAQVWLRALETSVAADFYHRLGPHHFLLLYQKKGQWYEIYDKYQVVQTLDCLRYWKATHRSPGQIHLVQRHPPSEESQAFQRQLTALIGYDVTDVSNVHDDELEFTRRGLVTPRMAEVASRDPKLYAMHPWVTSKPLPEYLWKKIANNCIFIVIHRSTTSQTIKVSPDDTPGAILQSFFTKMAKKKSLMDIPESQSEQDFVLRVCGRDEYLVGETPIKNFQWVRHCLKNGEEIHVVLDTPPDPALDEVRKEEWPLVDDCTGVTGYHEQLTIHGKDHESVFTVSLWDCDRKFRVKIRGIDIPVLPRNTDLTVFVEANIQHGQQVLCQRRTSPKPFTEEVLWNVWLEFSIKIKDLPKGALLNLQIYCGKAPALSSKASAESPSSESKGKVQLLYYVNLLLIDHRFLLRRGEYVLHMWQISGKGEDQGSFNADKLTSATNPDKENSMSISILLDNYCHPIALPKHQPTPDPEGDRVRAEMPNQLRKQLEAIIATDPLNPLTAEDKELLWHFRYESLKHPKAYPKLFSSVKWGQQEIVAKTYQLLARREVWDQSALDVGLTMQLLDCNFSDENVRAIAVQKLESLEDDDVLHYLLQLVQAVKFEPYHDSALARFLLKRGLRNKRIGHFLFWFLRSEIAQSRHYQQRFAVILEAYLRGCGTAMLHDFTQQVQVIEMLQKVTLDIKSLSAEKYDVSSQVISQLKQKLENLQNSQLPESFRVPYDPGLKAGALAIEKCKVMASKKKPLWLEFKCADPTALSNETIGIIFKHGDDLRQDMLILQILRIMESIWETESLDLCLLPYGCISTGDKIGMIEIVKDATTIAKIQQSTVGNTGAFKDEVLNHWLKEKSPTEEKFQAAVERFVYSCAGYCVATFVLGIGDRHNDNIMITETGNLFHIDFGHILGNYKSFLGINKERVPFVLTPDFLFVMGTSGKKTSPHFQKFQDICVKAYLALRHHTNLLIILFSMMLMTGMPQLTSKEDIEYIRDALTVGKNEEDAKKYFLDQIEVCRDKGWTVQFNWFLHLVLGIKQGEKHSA

IC50 ([1]; Homo sapiens, Table A4): 500 to 1000 nM
Structure (SMILES): Cc1ccc(C(O)(C(N)=O)C(F)(F)F)cc1-c1cnc(N)c(C2CN(S(=O)(=O)c3cnn(C)c3)C2)n1 (single isomer, unassigned) [Example 107, 2-(3-(5-Amino-6-(1-((1-methyl-1H-pyrazol-4-yl)sulfonyl)azetidin-3-yl)pyrazin-2-yl)-4-methylphenyl)-3,3,3-trifluoro-2-hydroxypropanamide, trifluoroacetate Salt]

IC50 ([2]; Table A4): 100 to 500 nM
IC50 ([1]; Table A4): > 1000 nM
Structure (SMILES): CCOC(=O)C1CC(c2nc(-c3cc(C(O)(C(N)=O)C(F)(F)F)ccc3C)cnc2N)C1 (single isomer, unassigned) [Example 109, Ethyl 3-(3-amino-6-(5-(3-amino-1,1,1-trifluoro-2-hydroxy-3-oxopropan-2-yl)-2-methylphenyl)pyrazin-2-yl)cyclobutane-1-carboxylate]

IC50 ([3]; Table A2): < 100 nM
IC50 ([2]; Table A2): 100 to 500 nM
IC50 ([1]; Homo sapiens, Table A2): 100 to 500 nM
Structure (SMILES): CCCc1nc(-c2cc(C(O)(C(N)=O)C(F)(F)F)ccc2C)cnc1N (stereo not shown) [Example 45, 2-(3-(5-amino-6-propylpyrazin-2-yl)-4-methylphenyl)-3,3,3-trifluoro-2-hydroxypropanamide]

IC50 ([3]; Table A2): < 100 nM
IC50 ([2]; Table A2): < 100 nM
IC50 ([1]; Homo sapiens, Table A2): 100 to 500 nM
Structure (SMILES): Cc1ccc(C(O)(C(N)=O)C(F)(F)F)cc1-c1cnc(N)c(C#CC(C)C)n1 (stereo not shown) [Example 49, 2-(3-(5-amino-6-(3-methylbut-1-ynyl)pyrazin-2-yl)-4-methylphenyl)-3,3,3-trifluoro-2-hydroxypropanamide]

IC50 ([3]; Table A2): < 100 nM
IC50 ([2]; Table A2): < 100 nM
IC50 ([1]; Homo sapiens, Table A2): 100 to 500 nM
Structure (SMILES): Cc1ccc(C(O)(C(N)=O)C(F)(F)F)cc1-c1cnc(N)c(C#Cc2ccn[nH]2)n1 (stereo not shown) [Example 52, 2-(3-(6-((1H-pyrazol-5-yl)ethynyl)-5-aminopyrazin-2-yl)-4-methylphenyl)-3,3,3-trifluoro-2-hydroxypropanamide]

IC50 ([1]; Homo sapiens, Table A3): < 100 nM
Structure (SMILES): Cc1ncc(-c2nc(-c3cc(C(O)(C(N)=O)C(F)(F)F)ccc3C)cnc2N)s1 (stereo not shown) [Example 72, 2-(3-(5-amino-6-(2-methylthiazol-5-yl)pyrazin-2-yl)-4-methylphenyl)-3,3,3-trifluoro-2-hydroxypropanamide trifluoroacetate]

The next lines start with the molecule.

Structure (SMILES): Cc1ccc(C(O)(C(N)=O)C(F)(F)F)cc1-c1cnc(N)c(C(=O)N[C@H]2CC[C@H](O)CC2)n1 (stereo partly shown) [Example 3, 3-amino-6-(5-(3-amino-1,1,1-trifluoro-2-hydroxy-3-oxopropan-2-yl)-2-methylphenyl)-N-((1r,4r)-4-hydroxycyclohexyl)pyrazine-2-carboxamide trifluoroacetate]
IC50 ([3]; Table A1): < 100 nM
IC50 ([2]; Table A1): < 100 nM
IC50 ([1]; Table A1): < 100 nM

Structure (SMILES): Cc1ccc(C(O)(C(N)=O)C(F)(F)F)cc1-c1cnc(N)c(C(=O)N[C@H]2CC[C@](C)(O)CC2)n1 (stereo partly shown) [Example 17, 3-amino-6-(5-(3-amino-1,1,1-trifluoro-2-hydroxy-3-oxopropan-2-yl)-2-methylphenyl)-N-((1r,4r)-4-hydroxy-4-methylcyclohexyl)pyrazine-2-carboxamide trifluoroacetate]
IC50 ([3]; Table A1): < 100 nM
IC50 ([2]; Table A1): < 100 nM
IC50 ([1]; Table A1): < 100 nM

Structure (SMILES): Cc1ccc(C(O)(C(N)=O)C(F)(F)F)cc1-c1cnc(N)c(C(=O)N[C@H]2CC[C@@](O)(C(F)(F)F)CC2)n1 (stereo partly shown) [Example 18, 3-amino-6-(5-(3-amino-1,1,1-trifluoro-2-hydroxy-3-oxopropan-2-yl)-2-methylphenyl)-N-((1r,4r)-4-hydroxy-4-(trifluoromethyl)cyclohexyl)pyrazine-2-carboxamide trifluoroacetate]
IC50 ([3]; Table A1): < 100 nM
IC50 ([2]; Table A1): < 100 nM
IC50 ([1]; Table A1): < 100 nM

Structure (SMILES): Cc1ccc(C(O)(C(N)=O)C(F)(F)F)cc1-c1cnc(N)c(C(=O)N[C@H]2CC[C@H](C(C)(C)O)CC2)n1 (stereo partly shown) [Example 19, 3-amino-6-(5-(3-amino-1,1,1-trifluoro-2-hydroxy-3-oxopropan-2-yl)-2-methylphenyl)-N-((1r,4r)-4-(2-hydroxypropan-2-yl)cyclohexyl)pyrazine-2-carboxamide trifluoroacetate]
IC50 ([3]; Table A1): < 100 nM
IC50 ([2]; Table A1): < 100 nM
IC50 ([1]; Table A1): < 100 nM

Structure (SMILES): CO[C@H]1CC[C@H](NC(=O)c2nc(-c3cc(C(O)(C(N)=O)C(F)(F)F)ccc3C)cnc2N)CC1 (stereo partly shown) [Example 22, 3-amino-6-(5-(3-amino-1,1,1-trifluoro-2-hydroxy-3-oxopropan-2-yl)-2-methylphenyl)-N-((1r,4r)-4-methoxycyclohexyl)pyrazine-2-carboxamide trifluoroacetate]
IC50 ([3]; Table A1): < 100 nM
IC50 ([2]; Table A1): < 100 nM
IC50 ([1]; Table A1): < 100 nM

Structure (SMILES): COC[C@H]1CCN1C(=O)c1nc(-c2cc(C(O)(C(N)=O)C(F)(F)F)ccc2C)cnc1N (stereo partly drawn) [Example 26, 2-(3-(5-amino-6-((R)-2-(methoxymethyl)azetidine-1-carbonyl)pyrazin-2-yl)-4-methylphenyl)-3,3,3-trifluoro-2-hydroxypropanamide]
IC50 ([3]; Table A1): < 100 nM
IC50 ([2]; Table A1): < 100 nM
IC50 ([1]; Homo sapiens, Table A1): 100 to 500 nM

Structure (SMILES): Cc1ccc(C(O)(C(N)=O)C(F)F)cc1-c1cnc(N)c(C(=O)NC(C)C)n1 (stereo not shown) [Example 31]
IC50 ([3]; Table A1): < 100 nM
IC50 ([2]; Table A1): < 100 nM
IC50 ([1]; Table A1): < 100 nM

Structure (SMILES): CC(=O)NCC(O)(c1ccc(C)c(-c2cnc(N)c(C(=O)NC(C)C)n2)c1)C(F)(F)F (stereo not shown) [Example 39, 6-(5-(3-Acetamido-1,1,1-trifluoro-2-hydroxypropan-2-yl)-2-methylphenyl)-3-amino-N-isopropylpyrazine-2-carboxamide trifluoroacetate]
IC50 ([3]; Table A1): < 100 nM
IC50 ([2]; Table A1): < 100 nM
IC50 ([1]; Homo sapiens, Table A1): 100 to 500 nM

Structure (SMILES): Cc1ccc(C(O)(CNC(=O)CF)C(F)(F)F)cc1-c1cnc(N)c(C(=O)NC(C)C)n1 (stereo not shown) [Example 40, 3-Amino-N-isopropyl-6-(2-methyl-5-(1,1,1-trifluoro-3-(2-fluoroacetamido)-2-hydroxypropan-2-yl)phenyl)pyrazine-2-carboxamide trifluoroacetate]
IC50 ([3]; Table A1): < 100 nM
IC50 ([2]; Table A1): < 100 nM
IC50 ([1]; Homo sapiens, Table A1): 100 to 500 nM

Structure (SMILES): Cc1ccc(C(O)(CNC(=O)CC#N)C(F)(F)F)cc1-c1cnc(N)c(C(=O)NC(C)C)n1 (stereo not shown) [Example 42, 3-Amino-6-(5-(3-(2-cyanoacetamido)-1,1,1-trifluoro-2-hydroxypropan-2-yl)-2-methylphenyl)-N-isopropylpyrazine-2-carboxamide trifluoroacetate]
IC50 ([3]; Table A1): < 100 nM
IC50 ([2]; Table A1): < 100 nM
IC50 ([1]; Homo sapiens, Table A1): 100 to 500 nM

Structure (SMILES): Cc1ccc(C(O)(C(N)=O)C(F)(F)F)cc1-c1cnc(N)c(C#Cc2cncn2C)n1 (stereo not shown) [Example 53, 2-(3-(5-amino-6-((1-methyl-1H-imidazol-5-yl)ethynyl)pyrazin-2-yl)-4-methylphenyl)-3,3,3-trifluoro-2-hydroxypropanamide]
IC50 ([3]; Table A2): < 100 nM
IC50 ([2]; Table A2): < 100 nM
IC50 ([1]; Table A2): 100 to 500 nM

Structure (SMILES): Cc1ncc(-c2nc(-c3cc(C(O)(C(N)=O)C(F)(F)F)ccc3C)cnc2N)o1 (stereo not shown) [Example 70, 2-(3-(5-amino-6-(2-methyloxazol-5-yl)pyrazin-2-yl)-4-methylphenyl)-3,3,3-trifluoro-2-hydroxypropanamide trifluoroacetate]
IC50 ([3]; Table A3): < 100 nM
IC50 ([2]; Table A3): < 100 nM
IC50 ([1]; Homo sapiens, Table A3): < 100 nM

Structure (SMILES): Cc1ccc(C(O)(C(N)=O)C(F)(F)F)cc1-c1cnc(N)c(-c2cnn(C)c2)n1 (stereo not shown) [Example 71, 2-(3-(5-amino-6-(1-methyl-1H-pyrazol-4-yl)pyrazin-2-yl)-4-methylphenyl)-3,3,3-trifluoro-2-hydroxypropanamide trifluoroacetate]
IC50 ([3]; Table A3): < 100 nM
IC50 ([2]; Table A3): < 100 nM
IC50 ([1]; Homo sapiens, Table A3): < 100 nM

Structure (SMILES): Cc1ccc(C(O)(C(N)=O)C(F)(F)F)cc1-c1cnc(N)c(-c2cnn(C)n2)n1 (stereo not shown) [Example 73, 2-(3-(5-amino-6-(2-methyl-2H-1,2,3-triazol-4-yl)pyrazin-2-yl)-4-methylphenyl)-3,3,3-trifluoro-2-hydroxypropanamide trifluoroacetate]
IC50 ([3]; Table A3): < 100 nM
IC50 ([2]; Table A3): < 100 nM
IC50 ([1]; Homo sapiens, Table A3): < 100 nM
